Measured values reported in patent EP1038864A1, “NOVEL METALLOPROTEINASE INHIBITORS” (FUJI YAKUHIN KOGYO KABUSHIKI KAISHA, priority 1997, dated 1999).
pIC50: −log10 of the molar value.

Target: T1, human fibroblast collagenase (Homo sapiens, UniProt P03956)
T1 sequence (P03956 100-469): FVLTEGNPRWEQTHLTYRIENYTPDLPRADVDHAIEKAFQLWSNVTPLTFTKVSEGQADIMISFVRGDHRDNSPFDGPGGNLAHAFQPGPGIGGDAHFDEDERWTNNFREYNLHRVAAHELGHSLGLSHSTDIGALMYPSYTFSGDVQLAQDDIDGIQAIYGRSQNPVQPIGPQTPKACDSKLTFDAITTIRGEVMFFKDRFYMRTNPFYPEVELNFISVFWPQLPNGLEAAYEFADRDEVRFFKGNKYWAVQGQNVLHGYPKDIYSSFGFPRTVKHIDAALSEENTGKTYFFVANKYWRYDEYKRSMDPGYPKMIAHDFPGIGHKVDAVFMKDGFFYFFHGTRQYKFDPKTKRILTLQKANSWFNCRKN
Experiment: Assay for inhibition of collagenase (fluorescein-labeled bovine type I collagen substrate)
Assay type: biochemical
Conditions: activated human fibroblast procollagenase, 35°C, 2 hours, pH 7.5; read-out: Inhibition of MMP-1
Method: (§1) Described below are assays for biological activities of the compounds according to the present invention, formulations, dosage forms and dosage levels thereof, and miscellaneous matters. The efficacy of the compounds represented by the formula (I) according to the present invention as inhibitors of human fibroblast collagenase (metalloproteinase involved in the breakdown of tissues) is determined by a procedure based on the method of Y. Murawaki et al., Journal of Hepatology, 18, p328-334 (1993). The efficacy of the compounds (I) of this invention as inhibitors of human fibroblast stromelysin is determined by a procedure based on the method of S. S. Twining, Anal. Biochem., 143, p30 (1984). The assay results obtained are shown hereinbelow, together with biological examples which illustrate embodiments of the assay protocols.
The efficacy of compounds of the present invention to act as inhibitors of human fibroblast collagenase was determined by the procedure of Y. Murawaki et al. (Journal of Hepatology, 18, p.328-334, 1993), compared with a reference compound.
Procollagenase was activated by incubation with 2 mM 4-aminophenylmercuric acetate (APMA) at 35°C for 2 hours. The inhibition was assayed using, as a substrate, fluorescein-labeled bovine type I collagen. To a solution of the substrate (0.5 mg/ml) in a 50 mM Tris-HCl buffer, pH 7.5, containing 0.4M aqueous sodium chloride and 10 mM aqueous […] was added the activated collagenase. The resultant solution was incubated at 35°C for 2 hours. The digestion of the substrate with the enzyme was stopped by addition of 80 mM o-phenanthroline, followed by addition of a porcine elastase solution formed by dissolving 25 µg/ml porcine elastase in the aforementioned Tris-HCl buffer. The mixture was incubated at 37°C for 10 minutes. To the resulting solution was added 70% ethanol, and a 170 mM Tris-HCl buffer, pH 9.5, containing 0.67M aqueous sodium chloride. Undigested substrates were precipitated by centrifugation at 3000 x g for 20 minutes. The supernatant was collected and the fluorescence was read using an excitation wavelength of 495 nm and an emission wavelength of 520 nm. The inhibitory potency of the compounds was calculated. […] The resulting assay data for representative examples are shown in Table 1, compared with the reference compound. […]

| SMILES | pIC50 |
| --- | --- |
| CNC(=O)[C@H](CCCN)NC(=O)[C@H](CC(C)C)C(CCCc1ccc(CN)cc1)C(=O)NO (single isomer, unassigned) [Compound No. 80, N^a-[4-(Hydroxyamino)-2(R)-isobutyl-3(R or S)-[3-(p-aminomethylphenyl)propyl]succinyl]-L-ornithine N-methylamide· 1 acetate] | 8.05 |
| CC(C)CC(C(=O)NO)[C@@H](CC(C)C)C(=O)N[C@@H](Cc1ccc(CN)cc1)C(=O)NCCC(=O)O (single isomer, unassigned) [Compound No. 84, N^a-[4-(Hydroxyamino)-2(R),3(R or S)-diisobutylsuccinyl]-4'-aminomethyl-L-phenylalanine N-(2-carboxyethyl)amide· 1 acetate] | 7.96 |
| CC(=N)NCc1ccc(CC(NC(=O)C(CC(C)C)C(CC(C)C)C(=O)NO)C(=O)NCCO)cc1 [Compound No. 91, N^a-[4-(Hydroxyamino)-2(R),3(RS)-diisobutylsuccinyl]-4'-acetimidoyliminomethyl-L-phenylalanine N-(2-hydroxyethyl)amide· 2 acetate] | 7.77 |
| CNC(=O)[C@@H](NC(=O)[C@H](CC(C)C)C(CCCc1ccc(CN)cc1)C(=O)NO)C(C)(C)C (single isomer, unassigned) [Compound No. 79, N^a-[4-(Hydroxyamino)-2(R)-isobutyl-3(R or S)-[3-(p-aminomethylphenyl)propyl]succinyl]-L-tert-leucine N-methylamide· 1 acetate] | 8.30 |
| CNC(=O)C(CCCCN)NC(=O)C(CC(C)C)C(CCCN1C(=O)N(C)C(C)(C)C1=O)C(=O)NO (single isomer, unassigned) [Compound No. 82, N^a-[4-(Hydroxyamino)-2(R)-isobutyl-3(R or S)-(3-(3,4,4-trimethyl-2,5-dioxo-imidazolidin-1-yl)propyl]succinyl]-L-lysine N-methylamide] | 8.40 |

Target: human fibroblast stromelysin (Homo sapiens, UniProt P08254)
Experiment: Assay for inhibition of stromelysin (fluorescein-labeled casein substrate)
Assay type: biochemical
Conditions: not given
Method: as §1
The efficacy of compounds of the present invention to act as inhibitors of human fibroblast stromelysin was determined by the procedure of Twining (Anal. Biochem., 143, p.30, 1984), compared with a reference compound.
Prostromelysin was activated by incubation with 20 µg/ml human plasmin at 37°C for 2 hours, and the reaction was stopped by addition of 2.8 mg/ml aqueous diisopropyl fluorophosphate. The inhibition was assayed using, as a substrate, fluorescein-labeled casein. To a solution of the substrate (1 mg/ml) in a 50 mM Tris-HCl buffer, pH 7.8, containing 10mM aqueous calcium chloride was added the activated stromelysin. The resultant solution was incubated at 37°C for 2 hours. The digestion of the substrate with the enzyme was stopped by addition of 5% trichloroacetic acid. Undigested substrates were precipitated by centrifugation at 3000 x g for 20 minutes. The supernatant was collected, followd by additon of a 0.5M Tris-HCl buffer, pH 8.5. The fluorescence was read using an excitation wavelength of 495 nm and an emission wavelength of 520 nm. The inhibitory potency of the compounds was calculated. […] The resulting assay data for representative examples are shown in Table 2, compared with the reference compound.

human fibroblast stromelysin, sequence (P08254 100-477): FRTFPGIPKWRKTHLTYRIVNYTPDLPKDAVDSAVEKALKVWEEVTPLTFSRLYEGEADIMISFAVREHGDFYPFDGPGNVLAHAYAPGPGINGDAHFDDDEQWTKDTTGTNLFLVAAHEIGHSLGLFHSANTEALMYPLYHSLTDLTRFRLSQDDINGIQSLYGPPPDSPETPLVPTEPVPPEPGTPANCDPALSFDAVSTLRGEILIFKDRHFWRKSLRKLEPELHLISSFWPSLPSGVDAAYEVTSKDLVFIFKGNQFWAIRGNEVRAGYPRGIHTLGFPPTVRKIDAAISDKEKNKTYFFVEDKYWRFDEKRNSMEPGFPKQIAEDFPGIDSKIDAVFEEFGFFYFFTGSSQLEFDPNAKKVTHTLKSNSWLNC

| SMILES | pIC50 |
| --- | --- |
| CNC(=O)[C@H](CCCCN)NC(=O)[C@H](CC(C)C)C(CCOCC(C)C)C(=O)NO (single isomer, unassigned) [Compound No. 70, N^a-[4-(Hydroxyamino)-2(R)-isobutyl-3(R or S)-(2-isobutyloxyethyl)succinyl]-L-lysine N-methylamide· 1 acetate] | 7.55 |
| CNC(=O)[C@H](CCCNC(=N)N)NC(=O)[C@H](CC(C)C)C(Cc1ccc(CNS(C)(=O)=O)cc1)C(=O)NO (single isomer, unassigned) [Compound No. 52, N^a-[4-(Hydroxyamino)-2(R)-isobutyl-3(R or S)-(p-methanesulfonamidomethylbenzyl)succinyl]-L-arginine N-methylamide· 1 acetate] | 7.64 |
| CNC(=O)C(CCNC(=N)N)NC(=O)C(CC(C)C)C(CCCc1ccccc1)C(=O)NO [Compound No. 26, N^4-[3-Guanidino-1(S)-methylcarbamoylpropyl]-N^1-hydroxy-3(R)-isobutyl-2-(RS)-(3-phenylpropyl)succinamide · 1 acetate] | 7.40 |
| CNC(=O)[C@H](CCCCN)NC(=O)[C@H](CC(C)C)C(CCCCCCCCO)C(=O)NO (single isomer, unassigned) [Compound No. 68, N^a-[4-(Hydroxyamino)-2(R)-isobutyl-3(R or S)-(8-hydroxyoctyl)-succinyl]-L-lysine N-methylamide· 1 acetate] | 7.85 |
| CNC(=O)[C@H](CCCNC(=N)N)NC(=O)[C@H](CC(C)C)C(CCOc1ccccc1)C(=O)NO (single isomer, unassigned) [Compound No. 54, N^a-[4-(Hydroxyamino)-2(R)-isobutyl-3(R or S)-(2-phenoxyethyl)succinyl]-L-arginine N-methylamide· 1 acetate] | 8.00 |

Same assay, conditions: plasmin-activated human fibroblast prostromelysin, 37°C, 2 hours, pH 7.8; read-out: Inhibition of MMP-3

| SMILES | pIC50 |
| --- | --- |
| CC(C)CC(C(=O)NC(CCCN)C(=O)NC1CC1)C(C)C(=O)NO (single isomer, unassigned) [Compound No. 37, N^a-[4-(Hydroxyamino)-2(R)-isobutyl-3(R or S)-methylsuccinyl]-L-ornithine N-cyclopropylamide · 1 acetate] | 7.30 |
| CC(C)CC(C(=O)NO)C(CC(C)C)C(=O)NC(Cc1ccc(CN)cc1)C(=O)NCCO [Compound No. 35, N^a-[4-(Hydroxyamino)-2(R),3(RS)-diisobutylsuccinyl]-4'-aminomethyl-L-phenylalanine N-(2-hydroxyethyl)amide · 1 acetate] | 7.72 |

Target: TNF-α Convertase (Homo sapiens, UniProt P78536)
Experiment: Assay for inhibition of TNF-α production in LPS-stimulated, PMA-differentiated U937 cells
Conditions: not given

TNF-α Convertase, sequence (P78536 215-824): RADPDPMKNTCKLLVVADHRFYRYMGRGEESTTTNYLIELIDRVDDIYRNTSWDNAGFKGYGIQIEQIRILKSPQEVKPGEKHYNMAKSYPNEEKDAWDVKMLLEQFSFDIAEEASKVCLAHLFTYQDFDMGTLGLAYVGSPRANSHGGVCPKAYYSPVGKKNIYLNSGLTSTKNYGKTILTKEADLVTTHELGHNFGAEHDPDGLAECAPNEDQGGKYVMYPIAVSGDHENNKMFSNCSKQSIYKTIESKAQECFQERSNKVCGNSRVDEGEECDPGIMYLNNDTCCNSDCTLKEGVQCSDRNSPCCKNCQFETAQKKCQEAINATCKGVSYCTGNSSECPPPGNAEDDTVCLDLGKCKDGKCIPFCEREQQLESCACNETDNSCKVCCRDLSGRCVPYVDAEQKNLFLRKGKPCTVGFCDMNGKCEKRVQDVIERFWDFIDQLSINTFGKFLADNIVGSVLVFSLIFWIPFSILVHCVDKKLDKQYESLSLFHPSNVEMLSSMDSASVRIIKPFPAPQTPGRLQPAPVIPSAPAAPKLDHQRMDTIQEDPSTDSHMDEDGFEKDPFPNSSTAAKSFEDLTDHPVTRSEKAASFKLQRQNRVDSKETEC

| SMILES | pIC50 |
| --- | --- |
| CNC(=O)C(Cc1ccc(CN)cc1)NC(=O)C(CC(C)C)C(CCCc1ccccc1)C(=O)NO (single isomer, unassigned) [Compound No. 47, N^a-[4-(Hydroxyamino)-2(R)-isobutyl-3(R or S)-(3-phenylpropyl)succinyl]-4'-aminomethyl-L-phenylalanine N-methylamide · 1 acetate] | 6.68 |
| CC(C)CC(C(=O)NO)C(CC(C)C)C(=O)NC(Cc1ccc(CN)cc1)C(=O)NCCN(C)C (single isomer, unassigned) [Compound No. 89, N^a-[4-(Hydroxyamino)-2(R),3(R or S)-diisobutylsuccinyl]-4'-aminomethyl-L-phenylalanine N-(2-N',N'-dimethylaminoethyl)amide· 2 acetate] | 5.72 |
| CNC(=O)[C@H](C)NC(=O)[C@H](CC(C)C)C(CCCc1ccc(CN)cc1)C(=O)NO (stereo partly drawn) [Compound No. 58, N^a-[4-(Hydroxyamino)-2(R)-isobutyl-3(RS)-[3-(p-aminomethylphenyl)propyl]succinyl]-L-alanine N-methylamide · 1 acetate] | 6.03 |
| CNC(=O)C(CCCNC(=N)N)NC(=O)C(CC(C)C)C(CCCC1CCCCC1)C(=O)NO (single isomer, unassigned) [Compound No. 55, N^a-[4-(Hydroxyamino)-2(R)-isobutyl-3(R or S)-(3-cyclohexylpropyl)succinyl]-L-arginine N-methylamide · 1 acetate] | 6.55 |
| CNC(=O)[C@H](C)NC(=O)[C@H](CC(C)C)C(CCCCCNC(C)=N)C(=O)NO (single isomer, unassigned) [Compound No. 62, N^a-[4-(Hydroxyamino)-2(R)-isobutyl-3(R or S)-[5-(acetimidoylimino)pentyl]succinyl]-L-alanine N-methylamide] | 5.54 |
| CNC(=O)[C@H](CCCCN)NC(=O)[C@H](CC(C)C)C(CCCc1ccc(C(=O)OC)cc1)C(=O)NO (single isomer, unassigned) [Compound No. 65, N^a-[4-(Hydroxyamino)-2(R)-isobutyl-3(R or S)-[3-(p-methoxycarbonylphenyl)propyl]succinyl]-L-lysine N-methylamide· 1 acetate] | 6.38 |
| CNC(=O)[C@H](CCCCN)NC(=O)[C@H](CC(C)C)C(CCCc1ccc(C(=O)O)cc1)C(=O)NO (single isomer, unassigned) [Compound No. 67, N^a-[4-(Hydroxyamino)-2(R)-isobutyl-3(R or S)-[3-(p-carboxyphenyl)propyl]succinyl]-L-lysine N-methylamide] | 6.28 |
| CNC(=O)[C@H](CCCNC(=N)N)NC(=O)[C@H](CC(C)C)C(CCOc1ccccc1)C(=O)NO (single isomer, unassigned) [Compound No. 54, N^a-[4-(Hydroxyamino)-2(R)-isobutyl-3(R or S)-(2-phenoxyethyl)succinyl]-L-arginine N-methylamide· 1 acetate] | 6.47 |
